Source: paper PMC7673538 (PLoS Biology, 2020)

Tested on: HeLa R19 cells
Test: not given
Conditions: human, monkey
For `COc1ccc(N(Cc2ccc(C(F)(F)F)cc2)C(=O)c2ccco2)cc1` [Compound 19e, N-(4-Methoxyphenyl)-N-(4-(trifluoromethyl)benzyl)furan-2-carboxamide], the “cytotoxicity (in words)” value was “cytotoxicity in a similar range as the parental compound 1”.

Tested on: HRV-A2
Test: microbe, parasite or virus in culture
Format: cell-based, human rhinovirus
Conditions: Human rhinovirus sp., HRVA2, HeLa R19, read-out: EC50 HRV-A2
`COc1ccc(N(Cc2ccc(C(F)(F)F)cc2)C(=O)c2ccco2)cc1` [Compound 19e, N-(4-Methoxyphenyl)-N-(4-(trifluoromethyl)benzyl)furan-2-carboxamide] gave an EC50 of over 30 µM.

Tested on: not listed separately
Test: in vitro
Conditions: monkey, CC50 BGM Average
For `COc1ccc(N(Cc2ccc(C(F)(F)F)cc2)C(=O)c2ccco2)cc1` [Compound 19e, N-(4-Methoxyphenyl)-N-(4-(trifluoromethyl)benzyl)furan-2-carboxamide], the CC50 was 55.9 µM.

Same assay, conditions: monkey, Exp 1 CC50 BGM
With `COc1ccc(N(Cc2ccc(C(F)(F)F)cc2)C(=O)c2ccco2)cc1` [Compound 19e, N-(4-Methoxyphenyl)-N-(4-(trifluoromethyl)benzyl)furan-2-carboxamide] the CC50 was 55 µM.

Same assay, conditions: monkey, Exp 2 CC50 BGM
In the case of `COc1ccc(N(Cc2ccc(C(F)(F)F)cc2)C(=O)c2ccco2)cc1` [Compound 19e, N-(4-Methoxyphenyl)-N-(4-(trifluoromethyl)benzyl)furan-2-carboxamide], the CC50 is reported as 56.9 µM.

Tested on: CV-A24
Test: microbe, parasite or virus in culture
Format: cell-based, coxsackievirus A24
Conditions: Enterovirus C, CVA24, HeLa R19, read-out: EC50 CV-A24
In the case of `COc1ccc(N(Cc2ccc(C(F)(F)F)cc2)C(=O)c2ccco2)cc1` [Compound 19e, N-(4-Methoxyphenyl)-N-(4-(trifluoromethyl)benzyl)furan-2-carboxamide], the EC50 is reported as over 30 µM.

Tested on: PV-1
Test: microbe, parasite or virus in culture
Format: cell-based, poliovirus 1
Conditions: Enterovirus C, HeLa R19, read-out: EC50 PV-1
Molecule `COc1ccc(N(Cc2ccc(C(F)(F)F)cc2)C(=O)c2ccco2)cc1` [Compound 19e, N-(4-Methoxyphenyl)-N-(4-(trifluoromethyl)benzyl)furan-2-carboxamide] has an EC50 of over 30 µM.

Tested on: not listed separately
Test: in vitro
Conditions: human, CC50 Average
`COc1ccc(N(Cc2ccc(C(F)(F)F)cc2)C(=O)c2ccco2)cc1` [Compound 19e, N-(4-Methoxyphenyl)-N-(4-(trifluoromethyl)benzyl)furan-2-carboxamide] showed a CC50 of over 30 µM.

Same assay, conditions: human, CC50 HelaR19 Average
`COc1ccc(N(Cc2ccc(C(F)(F)F)cc2)C(=O)c2ccco2)cc1` [Compound 19e, N-(4-Methoxyphenyl)-N-(4-(trifluoromethyl)benzyl)furan-2-carboxamide] showed a CC50 of 54 µM.

Same assay, conditions: human, Exp 1 CC50
With `COc1ccc(N(Cc2ccc(C(F)(F)F)cc2)C(=O)c2ccco2)cc1` [Compound 19e, N-(4-Methoxyphenyl)-N-(4-(trifluoromethyl)benzyl)furan-2-carboxamide] the CC50 was over 30 µM.

Same assay, conditions: human, Exp 1 CC50 HelaR19
`COc1ccc(N(Cc2ccc(C(F)(F)F)cc2)C(=O)c2ccco2)cc1` [Compound 19e, N-(4-Methoxyphenyl)-N-(4-(trifluoromethyl)benzyl)furan-2-carboxamide] gave a CC50 of 53 µM.

Same assay, conditions: human, Exp2 CC50
For `COc1ccc(N(Cc2ccc(C(F)(F)F)cc2)C(=O)c2ccco2)cc1` [Compound 19e, N-(4-Methoxyphenyl)-N-(4-(trifluoromethyl)benzyl)furan-2-carboxamide], the CC50 was over 30 µM.

Same assay, conditions: human, Exp 2 CC50 HelaR19
`COc1ccc(N(Cc2ccc(C(F)(F)F)cc2)C(=O)c2ccco2)cc1` [Compound 19e, N-(4-Methoxyphenyl)-N-(4-(trifluoromethyl)benzyl)furan-2-carboxamide] showed a CC50 of 55 µM.

Tested on: CV-B3
Test: microbe, parasite or virus in culture
Format: cell-based, coxsackievirus B3
Conditions: not given
For `COc1ccc(N(Cc2ccc(C(F)(F)F)cc2)C(=O)c2ccco2)cc1` [Compound 19e, N-(4-Methoxyphenyl)-N-(4-(trifluoromethyl)benzyl)furan-2-carboxamide], the “effect of the substitution on antiviral activity against CV-B3 (in words)” value was “only marginally affected antiviral activity”.

Same assay, conditions: Enterovirus B, CVB3, HeLa R19, read-out: CV-B3 EC50 Average
For `COc1ccc(N(Cc2ccc(C(F)(F)F)cc2)C(=O)c2ccco2)cc1` [Compound 19e, N-(4-Methoxyphenyl)-N-(4-(trifluoromethyl)benzyl)furan-2-carboxamide], the EC50 was 0.86 µM.

Same assay, conditions: Enterovirus B, CVB3, HeLa R19, read-out: CV-B3 Exp 1 EC50
Molecule `COc1ccc(N(Cc2ccc(C(F)(F)F)cc2)C(=O)c2ccco2)cc1` [Compound 19e, N-(4-Methoxyphenyl)-N-(4-(trifluoromethyl)benzyl)furan-2-carboxamide] has an EC50 of 0.73 µM.

Same assay, conditions: Enterovirus B, CVB3, HeLa R19, read-out: CV-B3 Exp2 EC50
Molecule `COc1ccc(N(Cc2ccc(C(F)(F)F)cc2)C(=O)c2ccco2)cc1` [Compound 19e, N-(4-Methoxyphenyl)-N-(4-(trifluoromethyl)benzyl)furan-2-carboxamide] has an EC50 of 0.98 µM.

Same assay, conditions: Enterovirus B, CVB3, HeLa R19, read-out: EC50 HelaR19 Average
`COc1ccc(N(Cc2ccc(C(F)(F)F)cc2)C(=O)c2ccco2)cc1` [Compound 19e, N-(4-Methoxyphenyl)-N-(4-(trifluoromethyl)benzyl)furan-2-carboxamide] gave an EC50 of 0.93 µM.

Same assay, conditions: Enterovirus B, CVB3, HeLa R19, read-out: Exp 2 EC50 HelaR19
Work on `COc1ccc(N(Cc2ccc(C(F)(F)F)cc2)C(=O)c2ccco2)cc1` [Compound 19e, N-(4-Methoxyphenyl)-N-(4-(trifluoromethyl)benzyl)furan-2-carboxamide] yielded an EC50 of 0.99 µM.

Tested on: EV-A71
Test: microbe, parasite or virus in culture
Format: cell-based, enterovirus A71
Conditions: Enterovirus A, EVA71, HeLa R19, read-out: EC50 Average
For `COc1ccc(N(Cc2ccc(C(F)(F)F)cc2)C(=O)c2ccco2)cc1` [Compound 19e, N-(4-Methoxyphenyl)-N-(4-(trifluoromethyl)benzyl)furan-2-carboxamide], the EC50 was 4.07 µM.

Same assay, conditions: Enterovirus A, EVA71, HeLa R19, read-out: EC50 EV-A71
Work on `COc1ccc(N(Cc2ccc(C(F)(F)F)cc2)C(=O)c2ccco2)cc1` [Compound 19e, N-(4-Methoxyphenyl)-N-(4-(trifluoromethyl)benzyl)furan-2-carboxamide] yielded an EC50 of 4.08 ± 0.99 µM.

Same assay, conditions: Enterovirus A, EVA71, HeLa R19, read-out: EC50 Exp1
`COc1ccc(N(Cc2ccc(C(F)(F)F)cc2)C(=O)c2ccco2)cc1` [Compound 19e, N-(4-Methoxyphenyl)-N-(4-(trifluoromethyl)benzyl)furan-2-carboxamide] gave an EC50 of 3.09 µM.

Same assay, conditions: Enterovirus A, EVA71, HeLa R19, read-out: EC50 Exp2
With `COc1ccc(N(Cc2ccc(C(F)(F)F)cc2)C(=O)c2ccco2)cc1` [Compound 19e, N-(4-Methoxyphenyl)-N-(4-(trifluoromethyl)benzyl)furan-2-carboxamide] the EC50 was 5.06 µM.

Tested on: not listed separately
Test: in vitro
Conditions: human, CC50 Hap1 Average
Molecule `COc1ccc(N(Cc2ccc(C(F)(F)F)cc2)C(=O)c2ccco2)cc1` [Compound 19e, N-(4-Methoxyphenyl)-N-(4-(trifluoromethyl)benzyl)furan-2-carboxamide] has a CC50 of 54.9 µM.

Same assay, conditions: human, Exp 1 CC50 Hap1
For `COc1ccc(N(Cc2ccc(C(F)(F)F)cc2)C(=O)c2ccco2)cc1` [Compound 19e, N-(4-Methoxyphenyl)-N-(4-(trifluoromethyl)benzyl)furan-2-carboxamide], the CC50 was 55.3 µM.

Same assay, conditions: human, Exp 2 CC50 Hap1
Work on `COc1ccc(N(Cc2ccc(C(F)(F)F)cc2)C(=O)c2ccco2)cc1` [Compound 19e, N-(4-Methoxyphenyl)-N-(4-(trifluoromethyl)benzyl)furan-2-carboxamide] yielded a CC50 of 54.5 µM.

Tested on: EV-D68
Test: microbe, parasite or virus in culture
Format: cell-based, enterovirus D68
Conditions: Enterovirus D, EVD68, HeLa R19, read-out: EC50 EV-D68
`COc1ccc(N(Cc2ccc(C(F)(F)F)cc2)C(=O)c2ccco2)cc1` [Compound 19e, N-(4-Methoxyphenyl)-N-(4-(trifluoromethyl)benzyl)furan-2-carboxamide] showed an EC50 of 4.47 ± 0.26 µM.

Same assay, conditions: Enterovirus D, EVD68, HeLa R19, read-out: EC50 Exp1
`COc1ccc(N(Cc2ccc(C(F)(F)F)cc2)C(=O)c2ccco2)cc1` [Compound 19e, N-(4-Methoxyphenyl)-N-(4-(trifluoromethyl)benzyl)furan-2-carboxamide] gave an EC50 of 4.72 µM.

Same assay, conditions: Enterovirus D, EVD68, HeLa R19, read-out: EC50 Exp2
Molecule `COc1ccc(N(Cc2ccc(C(F)(F)F)cc2)C(=O)c2ccco2)cc1` [Compound 19e, N-(4-Methoxyphenyl)-N-(4-(trifluoromethyl)benzyl)furan-2-carboxamide] has an EC50 of 4.21 µM.

Tested on: CV-B3
Test: microbe, parasite or virus in culture
Format: cell-based, coxsackievirus B3
Conditions: Enterovirus B, CVB3, HAP1, read-out: EC50 Hap1 Average
Molecule `COc1ccc(N(Cc2ccc(C(F)(F)F)cc2)C(=O)c2ccco2)cc1` [Compound 19e, N-(4-Methoxyphenyl)-N-(4-(trifluoromethyl)benzyl)furan-2-carboxamide] has an EC50 of 2.85 µM.

Same assay, conditions: Enterovirus B, CVB3, HAP1, read-out: Exp 1 EC50 Hap1
`COc1ccc(N(Cc2ccc(C(F)(F)F)cc2)C(=O)c2ccco2)cc1` [Compound 19e, N-(4-Methoxyphenyl)-N-(4-(trifluoromethyl)benzyl)furan-2-carboxamide] gave an EC50 of 2.14 µM.

Same assay, conditions: Enterovirus B, CVB3, HAP1, read-out: Exp 2 EC50 Hap1
`COc1ccc(N(Cc2ccc(C(F)(F)F)cc2)C(=O)c2ccco2)cc1` [Compound 19e, N-(4-Methoxyphenyl)-N-(4-(trifluoromethyl)benzyl)furan-2-carboxamide] showed an EC50 of 3.56 µM.

Tested on: HRV-B14
Test: microbe, parasite or virus in culture
Format: cell-based, human rhinovirus
Conditions: Human rhinovirus sp., HRVB14, HeLa R19, read-out: EC50 Exp1
In the case of `COc1ccc(N(Cc2ccc(C(F)(F)F)cc2)C(=O)c2ccco2)cc1` [Compound 19e, N-(4-Methoxyphenyl)-N-(4-(trifluoromethyl)benzyl)furan-2-carboxamide], the EC50 is reported as 7.9 µM.

Same assay, conditions: Human rhinovirus sp., HRVB14, HeLa R19, read-out: EC50 Exp2
Work on `COc1ccc(N(Cc2ccc(C(F)(F)F)cc2)C(=O)c2ccco2)cc1` [Compound 19e, N-(4-Methoxyphenyl)-N-(4-(trifluoromethyl)benzyl)furan-2-carboxamide] yielded an EC50 of 8.86 µM.

Same assay, conditions: Human rhinovirus sp., HRVB14, HeLa R19, read-out: EC50 HRV-B14
`COc1ccc(N(Cc2ccc(C(F)(F)F)cc2)C(=O)c2ccco2)cc1` [Compound 19e, N-(4-Methoxyphenyl)-N-(4-(trifluoromethyl)benzyl)furan-2-carboxamide] gave an EC50 of 8.38 ± 0.48 µM.

Tested on: CV-B3
Test: microbe, parasite or virus in culture
Format: cell-based, coxsackievirus B3
Conditions: Enterovirus B, CVB3, BGM, read-out: EC50 BGM Average
`COc1ccc(N(Cc2ccc(C(F)(F)F)cc2)C(=O)c2ccco2)cc1` [Compound 19e, N-(4-Methoxyphenyl)-N-(4-(trifluoromethyl)benzyl)furan-2-carboxamide] gave an EC50 of 2.41 µM.

Same assay, conditions: Enterovirus B, CVB3, BGM, read-out: Exp 1 EC50 BGM
With `COc1ccc(N(Cc2ccc(C(F)(F)F)cc2)C(=O)c2ccco2)cc1` [Compound 19e, N-(4-Methoxyphenyl)-N-(4-(trifluoromethyl)benzyl)furan-2-carboxamide] the EC50 was 2.05 µM.

Same assay, conditions: Enterovirus B, CVB3, BGM, read-out: Exp 2 EC50 BGM
With `COc1ccc(N(Cc2ccc(C(F)(F)F)cc2)C(=O)c2ccco2)cc1` [Compound 19e, N-(4-Methoxyphenyl)-N-(4-(trifluoromethyl)benzyl)furan-2-carboxamide] the EC50 was 2.76 µM.
